From US20260265273A1, “SOLID FORM OF FUSED RING COMPOUND, AND PREPARATION METHOD THEREFOR AND USE THEREOF” (APPLIED PHARMACEUTICAL SCIENCE, INC., priority 2022, published 2026)
Converted amounts (≈) assume the structure as drawn.

How the values were obtained:
[1] = Solubility Test II (saturated solubility by HPLC); assay type: physicochemical; conditions: for solubility at 24 h: 37 °C, thermodynamic from solid
Procedure: Chromatographic column: Waters XTERRA RP18, 4.6 mm×150 mm, 3.5 μm or an equivalent chromatographic column. […] The gradient elution conditions are shown in Table 3-2. pH 4.5 acetate buffer: 0.59806 g of sodium acetate trihydrate was added to a 200-mL measuring flask and dissolved in an appropriate amount of water; 1.6 mL of glacial acetic acid was added; and the mixture was diluted to volume to obtain the pH 4.5 acetate buffer. pH 6.8 phosphate buffer: 1.38501 g of potassium dihydrogen phosphate and 0.18086 g of sodium hydroxide were added to the same 200-mL measuring flask; and the mixture was dissolved in water and diluted to volume to obtain the pH 6.8 phosphate buffer. 10.0 mL of each medium was precisely measured, and the media were placed into different 25-mL measuring flasks; an appropriate amount of each test crystal form was added; and the flasks were sealed and oscillated in an oscillator at 37° C. for 24 h to obtain supersaturated solutions. pH 6.8 phosphate buffer sample solution: the supersaturated solution prepared using the pH 6.8 phosphate buffer medium was filtered to obtain the pH 6.8 phosphate buffer sample solution. Water sample solution: the supersaturated solution prepared using the water medium was filtered to obtain the water sample solution. pH 4.5 acetate buffer sample solution: the supersaturated solution prepared using the pH 4.5 acetate buffer medium was filtered, and 1.0 mL of the filtrate was precisely measured and placed into a 10-mL measuring flask; the filtrate was diluted to volume with the pH 4.5 acetate buffer medium, and 1.0 mL of the solution was then precisely measured and placed into the 10-mL measuring flask; and the solution was diluted to volume with methanol to obtain the pH 4.5 acetate buffer sample solution. (ii) Preparation of crystal form A sample solution: pH 6.8 phosphate buffer sample solution: the supersaturated solution prepared using the pH 6.8 phosphate buffer medium was filtered to obtain the pH 6.8 phosphate buffer sample solution. Water sample solution: the supersaturated solution prepared using the water medium was filtered to obtain the water sample solution. pH 4.5 acetate buffer sample solution: the supersaturated solution prepared using the pH 4.5 acetate buffer medium was filtered, and 1.0 mL of the filtrate was precisely measured and placed into a 10-mL measuring flask; the filtrate was diluted to volume with the pH 4.5 acetate buffer medium, and 1.0 mL of the solution was then precisely measured and placed into a 25-mL measuring flask; and the solution was diluted to volume with methanol to obtain the pH 4.5 acetate buffer sample solution. Each medium sample solution was taken, 10 μL of each test sample solution was precisely measured and injected into a liquid chromatograph according to the chromatography conditions described above, and the chromatogram was recorded. The saturated solution degree of each medium was calculated according to the formula below. In the formula: WR=sample weight of control solution, mg; PR=purity factor of control; • AS=peak area of main peak in test solution: DS=dilution factor of test solution; • AR=peak area of main peak in control solution; DR=dilution factor of control solution;

[2] = Solubility Test I (stepwise solvent addition); assay type: physicochemical; conditions: thermodynamic from solid, room temperature
Procedure: About 2 mg of the crystal form A sample prepared according to Example 2 was weighed out and added to an HPLC vial, and the corresponding solvent was added stepwise (50/50/200/700 μL in sequence), followed by oscillation until the solid was completely dissolved. If the sample was still not completely dissolved after 1 mL of the solvent was added, no more solvent was added. The solubility range was calculated based on the mass of the solid sample, the volume of the solvent added, and the observed dissolution results, and the results are summarized in Table 3-1.

[3] = Hygroscopicity test (DVS); assay type: physicochemical
Procedure: Dynamic vapor sorption (DVS) curves were acquired on a DVS Intrinsic in SMS (Surface Measurement Systems). The relative humidity at 25° C. was corrected with the deliquescence points of LiCl, Mg(NO3)2, and KCl.

[4] = Pharmacokinetic experiment in SD rats; assay type: in vivo; conditions: oral intragastric 10 mg/kg
Procedure: Six SPF-grade SD rats were prepared and weighed before administration. The dose of administration was calculated based on the weight. […] These administration solutions were orally and intragastrically administered at 10 mg/kg. The rats were weighed before administration, and the dose of administration was calculated based on the weight. 3 rats were used for each crystal form. The administration solutions were orally and intragastrically administered, followed by collection of samples via the jugular vein or other suitable means at the following time points: 0.25 […], and 24 h. About 0.20 mL of each sample was collected, and the plasma was separated out by centrifugation within 2 h. The compound I was detected, and plasma drug concentration-time curves were plotted. The pharmacokinetic parameters were calculated by utilizing WinNonlin according to the plasma concentration data at different time points.

[5] = Solid-state stability test (XRPD, HPLC purity); assay type: physicochemical
[6] = 25° C./60% RH/uncovered, 2 weeks
[7] = 25° C./60% RH/uncovered, 4 weeks
[8] = 25° C./60% RH/uncovered, 6 weeks
[9] = 40° C./75% RH/uncovered, 2 weeks
[10] = 40° C./75% RH/uncovered, 4 weeks
[11] = 40° C./75% RH/uncovered, 6 weeks

Compound `CCOc1cc(-c2ccc(N3CC4CC(C3)N4Cc3ccc(OC)nc3)nc2)c2c3cn[nH]c3nn2c1` (single isomer, unassigned) [Crystal form A] has a Saturated solubility ([1]; pH 4.5 acetate buffer, 37° C., 24 h, listed as crystal form A) of 14545.08 µg/mL, a solubility at 24 h ([1]; pH 6.8 phosphate buffer, pH 6.8, aqueous buffer) of 0.04 µg/mL (≈ 8.06e-05 mM) and a solubility at 24 h ([1]; water) of 0.61 µg/mL (≈ 0.00123 mM). It also gave a solubility ([2]; organic solvent or mixture, solvent 1,4-Dioxane) of 2000 to 6700 µg/mL (≈ 4.03 to 13.5 mM), a solubility ([2]; organic solvent or mixture, solvent 2-MeTHF) of 2400 to 8000 µg/mL (≈ 4.83 to 16.1 mM) and a solubility ([2]; organic solvent or mixture, solvent ACN) of less than 2200 µg/mL. It also gave a solubility ([2]; organic solvent or mixture, solvent Acetone, undissolved sample completely dissolved at 50° C. ~1 h) of less than 1900 µg/mL, a solubility ([2]; organic solvent or mixture, solvent Anisole, undissolved sample completely dissolved at 50° C. ~1 h) of less than 2200 µg/mL and a solubility ([2]; organic solvent or mixture, solvent CHCl3) of 20000 to 40000 µg/mL (≈ 40.3 to 80.6 mM). For the same compound, the solubility ([2]; organic solvent or mixture, solvent CPME, undissolved sample completely dissolved at 50° C. ~1 h) was less than 2000 µg/mL, the solubility ([2]; organic solvent or mixture, solvent DCM) was 7700 to 23000 µg/mL (≈ 15.5 to 46.3 mM) and the solubility ([2]; organic solvent or mixture, solvent DMSO) was 21000 to 42000 µg/mL (≈ 42.3 to 84.6 mM). For the same compound, the solubility ([2]; organic solvent or mixture, solvent EtOAc, undissolved sample completely dissolved at 50° C. ~1 h) was less than 2200 µg/mL, the solubility ([2]; organic solvent or mixture, solvent EtOH, undissolved sample completely dissolved at 50° C. ~1 h) was less than 1900 µg/mL and the solubility ([2]; organic solvent or mixture, solvent IPA, undissolved sample completely dissolved at 50° C. ~1 h) was less than 2000 µg/mL. The solubility ([2]; organic solvent or mixture, solvent IPAC) was less than 2200 µg/mL, the solubility ([2]; organic solvent or mixture, solvent MIBK) was less than 2200 µg/mL and the solubility ([2]; organic solvent or mixture, solvent MTBE) was less than 2200 µg/mL. It also gave a solubility ([2]; organic solvent or mixture, solvent MeOH, undissolved sample completely dissolved at 50° C. ~1 h) of less than 2100 µg/mL, a solubility ([2]; organic solvent or mixture, solvent THE) of 1900 to 6300 µg/mL (≈ 3.83 to 12.7 mM) and a solubility ([2]; organic solvent or mixture, solvent Toluene) of less than 2000 µg/mL. For the same compound, the solubility ([2]; organic solvent or mixture, solvent n-Heptane) was less than 2000 µg/mL, the solubility ([2]; water, solvent H2O) was less than 2300 µg/mL and the hygroscopicity evaluation ([3]; DVS at 25° C., 0% RH-95% RH, according to Chinese Pharmacopoeia 2015 Edition) was “slightly hygroscopic”. For the same compound, the hygroscopic weight gain ([3]; DVS, 25° C./80% RH, listed as crystal form A) was “about 1.1%”, the “crystal form after the DVS test (XRPD)” value ([3]; after DVS test) was “not changed” and the AUC(0-t) ([4]; SD, rat, plasma, po, 10 mg/kg, 1 mg/mL in 5% DMSO in normal saline, compound I in plasma, 0.25-24 h, read-out: AUC(0-t)) was 19100 ng·h/mL. The in vivo absorption ([4]; comparison of crystal forms) was “significantly superior to that of the crystal form B”, the “Purity (area %)” value [5, 6] was 99.95 area % and the “Relative to initial purity (%)” value [5, 6] was 99.99%. The Crystal form change ([5]; 25° C./60% RH/uncovered, 2 weeks, XRPD) was “No change”, the “Purity (area %)” value [5, 7] was 99.94 area % and the “Relative to initial purity (%)” value [5, 7] was 99.98%. The Crystal form change ([5]; 25° C./60% RH/uncovered, 4 weeks, XRPD) was “No change”, the “Purity (area %)” value [5, 8] was 99.96 area % and the “Relative to initial purity (%)” value [5, 8] was 100.00%. The Crystal form change ([5]; 25° C./60% RH/uncovered, 6 weeks, XRPD) was “No change”, the “Purity (area %)” value [5, 9] was 99.96 area % and the “Relative to initial purity (%)” value [5, 9] was 100.00%. The Crystal form change ([5]; 40° C./75% RH/uncovered, 2 weeks, XRPD) was “No change”, the “Purity (area %)” value [5, 10] was 99.96 area % and the “Relative to initial purity (%)” value [5, 10] was 100.00%. For the same compound, the Crystal form change ([5]; 40° C./75% RH/uncovered, 4 weeks, XRPD) was “No change”, the “Purity (area %)” value [5, 11] was 99.95 area % and the “Relative to initial purity (%)” value [5, 11] was 99.99%. The Crystal form change ([5]; 40° C./75% RH/uncovered, 6 weeks, XRPD) was “No change”, the “Purity (area %)” value ([5]; 60° C./sealed, 24 h) was 99.96 area % and the “Relative to initial purity (%)” value ([5]; 60° C./sealed, 24 h) was 100.00%. The Crystal form change ([5]; 60° C./sealed, 24 h, XRPD) was “No change”, the “HPLC purity under the test conditions” value ([5]; all stability conditions (60° C. sealed 24 h; 25° C./60% RH and 40° C./75% RH uncovered 2, 4, 6 weeks)) was “not significantly reduced” and the “crystal form under the test conditions” value ([5]; all stability conditions, XRPD) was “not changed”.
